Results from PubChem BioAssay (NCI).
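How tested: cells in 96-well plates exposed to compound for 48 hours at five concentrations. At the GI50, growth is halved. Definition used: TGI = concentration required for complete inhibition of growth.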

Tests used:
Experiment in all cases: DTP human tumour cell line panel, 48 h
NCI/ADR-RES ovarian = tested on: NCI/ADR-RES ovarian
T-47D breast = tested on: T-47D breast
PC-3 prostate = tested on: PC-3 prostate
OVCAR-3 ovarian = tested on: OVCAR-3 ovarian
NCI-H23 lung = tested on: NCI-H23 lung
IGROV1 ovarian = tested on: IGROV1 ovarian
KM12 colon = tested on: KM12 colon
U251 CNS = tested on: U251 CNS
CCRF-CEM leukemia = tested on: CCRF-CEM leukemia
SK-MEL-5 melanoma = tested on: SK-MEL-5 melanoma
OVCAR-8 ovarian = tested on: OVCAR-8 ovarian
HT29 colon = tested on: HT29 colon
OVCAR-5 ovarian = tested on: OVCAR-5 ovarian
SN12C renal = tested on: SN12C renal
NCI-H460 lung = tested on: NCI-H460 lung
MDA-MB-435 = tested on: MDA-MB-435
M14 melanoma = tested on: M14 melanoma
SNB-75 CNS = tested on: SNB-75 CNS
HCT-15 colon = tested on: HCT-15 colon
HCC-2998 colon = tested on: HCC-2998 colon
MDA-N = tested on: MDA-N
A498 renal = tested on: A498 renal
MDA-MB-231 breast = tested on: MDA-MB-231 breast
HOP-62 NSCLC = tested on: HOP-62 NSCLC
786-0 renal = tested on: 786-0 renal
EKVX NSCLC = tested on: EKVX NSCLC
SNB-19 CNS = tested on: SNB-19 CNS
OVCAR-4 ovarian = tested on: OVCAR-4 ovarian
HCT-116 colon = tested on: HCT-116 colon
UACC-257 melanoma = tested on: UACC-257 melanoma
RPMI-8226 leukemia = tested on: RPMI-8226 leukemia
SR leukemia = tested on: SR leukemia
MOLT-4 leukemia = tested on: MOLT-4 leukemia
ACHN renal = tested on: ACHN renal
UACC-62 melanoma = tested on: UACC-62 melanoma
NCI-H522 lung = tested on: NCI-H522 lung
SF-539 CNS = tested on: SF-539 CNS
HL-60(TB) leukemia = tested on: HL-60(TB) leukemia
MALME-3M melanoma = tested on: MALME-3M melanoma
HOP-92 NSCLC = tested on: HOP-92 NSCLC
NCI-H226 lung = tested on: NCI-H226 lung
UO-31 renal = tested on: UO-31 renal
BT-549 breast = tested on: BT-549 breast
SK-OV-3 ovarian = tested on: SK-OV-3 ovarian
SK-MEL-28 melanoma = tested on: SK-MEL-28 melanoma
DU-145 prostate = tested on: DU-145 prostate
COLO 205 colon = tested on: COLO 205 colon
K-562 leukemia = tested on: K-562 leukemia
RXF 393 renal = tested on: RXF 393 renal
MCF7 breast = tested on: MCF7 breast
HS 578T breast = tested on: HS 578T breast
SF-295 CNS = tested on: SF-295 CNS
LOX IMVI melanoma = tested on: LOX IMVI melanoma
SW-620 colon = tested on: SW-620 colon
SF-268 CNS = tested on: SF-268 CNS
CAKI-1 renal = tested on: CAKI-1 renal
A549 NSCLC = tested on: A549 NSCLC
SK-MEL-2 melanoma = tested on: SK-MEL-2 melanoma
TK-10 renal = tested on: TK-10 renal
LXFL 529 NSCLC = tested on: LXFL 529 NSCLC
KM20L2 colon = tested on: KM20L2 colon
DMS 114 small cell lung = tested on: DMS 114 small cell lung
XF 498 CNS = tested on: XF 498 CNS
DMS 273 small cell lung = tested on: DMS 273 small cell lung
SNB-78 CNS = tested on: SNB-78 CNS
DLD-1 colon = tested on: DLD-1 colon
HOP-18 NSCLC = tested on: HOP-18 NSCLC

## O=CN(O)CC(=O)O.[Ni]
NCI/ADR-RES ovarian
  TGI: > 100 µM
T-47D breast
  TGI: > 100 µM
PC-3 prostate
  TGI: > 100 µM
OVCAR-3 ovarian
  TGI: > 100 µM
NCI-H23 lung
  TGI: > 100 µM
IGROV1 ovarian
  TGI: > 100 µM
KM12 colon
  TGI: > 100 µM
U251 CNS
  TGI: > 100 µM
CCRF-CEM leukemia
  TGI: > 100 µM
SK-MEL-5 melanoma
  TGI: > 100 µM
OVCAR-8 ovarian
  TGI: > 100 µM
HT29 colon
  TGI: > 100 µM
OVCAR-5 ovarian
  TGI: > 100 µM
SN12C renal
  TGI: > 100 µM
NCI-H460 lung
  TGI: > 100 µM
MDA-MB-435
  TGI: > 100 µM
M14 melanoma
  TGI: > 100 µM
SNB-75 CNS
  TGI: > 100 µM
HCT-15 colon
  TGI: > 100 µM
HCC-2998 colon
  TGI: > 100 µM
MDA-N
  TGI: > 100 µM
A498 renal
  TGI: > 100 µM
MDA-MB-231 breast
  TGI: > 100 µM
HOP-62 NSCLC
  TGI: > 100 µM
786-0 renal
  TGI: > 100 µM
EKVX NSCLC
  TGI: > 100 µM
SNB-19 CNS
  TGI: > 100 µM
OVCAR-4 ovarian
  TGI: > 100 µM
HCT-116 colon
  TGI: > 100 µM
UACC-257 melanoma
  TGI: > 100 µM
RPMI-8226 leukemia
  TGI: > 100 µM
SR leukemia
  TGI: > 100 µM
MOLT-4 leukemia
  TGI: > 100 µM
ACHN renal
  TGI: > 100 µM
UACC-62 melanoma
  TGI: > 100 µM
NCI-H522 lung
  GI50: > 100 µM
  TGI: > 100 µM
SF-539 CNS
  TGI: > 100 µM
HL-60(TB) leukemia
  TGI: > 100 µM
MALME-3M melanoma
  TGI: > 100 µM
HOP-92 NSCLC
  TGI: > 100 µM
NCI-H226 lung
  TGI: > 100 µM
UO-31 renal
  TGI: > 100 µM
BT-549 breast
  TGI: > 100 µM
SK-OV-3 ovarian
  TGI: > 100 µM
SK-MEL-28 melanoma
  TGI: > 100 µM
DU-145 prostate
  TGI: > 100 µM
COLO 205 colon
  TGI: > 100 µM
K-562 leukemia
  TGI: > 100 µM
RXF 393 renal
  TGI: > 100 µM
MCF7 breast
  TGI: > 100 µM
HS 578T breast
  TGI: > 100 µM
SF-295 CNS
  TGI: > 100 µM
LOX IMVI melanoma
  TGI: > 100 µM
SW-620 colon
  TGI: > 100 µM
SF-268 CNS
  TGI: > 100 µM
CAKI-1 renal
  GI50: > 100 µM
  TGI: > 100 µM

## CC(=O)c1c2c(cc3c1CC1(C3)Cc3ccc4c(c3C1=O)CCC4)CCC2 (centres undefined)
NCI/ADR-RES ovarian
  TGI: 17.7 µM
T-47D breast
  TGI: > 100 µM
PC-3 prostate
  TGI: > 100 µM
A549 NSCLC
  TGI: > 100 µM
OVCAR-3 ovarian
  TGI: > 100 µM
NCI-H23 lung
  TGI: > 100 µM
IGROV1 ovarian
  TGI: > 100 µM
SK-MEL-2 melanoma
  TGI: > 100 µM
KM12 colon
  TGI: > 100 µM
U251 CNS
  TGI: > 100 µM
CCRF-CEM leukemia
  TGI: > 100 µM
SK-MEL-5 melanoma
  TGI: 38.5 µM
OVCAR-8 ovarian
  TGI: > 100 µM
HT29 colon
  TGI: > 100 µM
OVCAR-5 ovarian
  TGI: > 100 µM
SN12C renal
  TGI: > 100 µM
NCI-H460 lung
  TGI: > 100 µM
MDA-MB-435
  TGI: 32.8 µM
M14 melanoma
  TGI: > 100 µM
SNB-75 CNS
  TGI: > 100 µM
HCT-15 colon
  TGI: > 100 µM
HCC-2998 colon
  TGI: > 100 µM
MDA-N
  TGI: > 100 µM
A498 renal
  TGI: > 100 µM
MDA-MB-231 breast
  TGI: > 100 µM
HOP-62 NSCLC
  TGI: > 100 µM
786-0 renal
  TGI: > 100 µM
EKVX NSCLC
  TGI: 96 µM
SNB-19 CNS
  TGI: > 100 µM
OVCAR-4 ovarian
  TGI: > 100 µM
HCT-116 colon
  TGI: > 100 µM
UACC-257 melanoma
  TGI: 14.9 µM
RPMI-8226 leukemia
  TGI: > 100 µM
SR leukemia
  TGI: 64 µM
MOLT-4 leukemia
  TGI: > 100 µM
ACHN renal
  TGI: > 100 µM
UACC-62 melanoma
  TGI: > 100 µM
TK-10 renal
  TGI: > 100 µM
NCI-H522 lung
  TGI: 9.51 µM
SF-539 CNS
  TGI: > 100 µM
HL-60(TB) leukemia
  TGI: 15 µM
MALME-3M melanoma
  TGI: > 100 µM
HOP-92 NSCLC
  TGI: 83.7 µM
NCI-H226 lung
  TGI: > 100 µM
UO-31 renal
  TGI: > 100 µM
BT-549 breast
  TGI: > 100 µM
SK-OV-3 ovarian
  TGI: > 100 µM
SK-MEL-28 melanoma
  TGI: > 100 µM
DU-145 prostate
  TGI: > 100 µM
COLO 205 colon
  TGI: 39.3 µM
K-562 leukemia
  TGI: > 100 µM
RXF 393 renal
  TGI: > 100 µM
MCF7 breast
  TGI: > 100 µM
HS 578T breast
  TGI: > 100 µM
SF-295 CNS
  TGI: > 100 µM
LOX IMVI melanoma
  TGI: > 100 µM
SW-620 colon
  TGI: > 100 µM
SF-268 CNS
  TGI: > 100 µM
CAKI-1 renal
  TGI: > 100 µM

## COc1cc(-c2ccc(Nc3ccccc3C(=O)O)c(OC)c2)ccc1Nc1ccccc1C(=O)O
NCI/ADR-RES ovarian
  TGI: > 100 µM
LXFL 529 NSCLC
  TGI: > 100 µM
T-47D breast
  TGI: > 65.7 µM
PC-3 prostate
  TGI: > 67.4 µM
A549 NSCLC
  TGI: > 100 µM
OVCAR-3 ovarian
  TGI: 39.1 µM
NCI-H23 lung
  TGI: 71 µM
IGROV1 ovarian
  TGI: > 100 µM
SK-MEL-2 melanoma
  TGI: 58.6 µM
KM12 colon
  TGI: > 70.9 µM
U251 CNS
  TGI: 37.3 µM
CCRF-CEM leukemia
  TGI: 86.1 µM
SK-MEL-5 melanoma
  TGI: > 100 µM
OVCAR-8 ovarian
  TGI: 81.5 µM
HT29 colon
  TGI: > 100 µM
OVCAR-5 ovarian
  TGI: > 87.5 µM
SN12C renal
  TGI: > 73.6 µM
NCI-H460 lung
  TGI: 36.7 µM
MDA-MB-435
  TGI: 46 µM
M14 melanoma
  TGI: > 100 µM
SNB-75 CNS
  TGI: 91.3 µM
HCT-15 colon
  TGI: 51.6 µM
HCC-2998 colon
  TGI: > 82 µM
MDA-N
  TGI: 97.5 µM
A498 renal
  TGI: > 96.5 µM
KM20L2 colon
  TGI: > 100 µM
MDA-MB-231 breast
  TGI: > 91.6 µM
HOP-62 NSCLC
  TGI: 49.8 µM
786-0 renal
  TGI: > 100 µM
EKVX NSCLC
  TGI: > 97.4 µM
SNB-19 CNS
  TGI: > 100 µM
OVCAR-4 ovarian
  TGI: > 100 µM
DMS 114 small cell lung
  TGI: > 100 µM
HCT-116 colon
  TGI: 23.6 µM
UACC-257 melanoma
  TGI: > 100 µM
RPMI-8226 leukemia
  TGI: > 95.8 µM
SR leukemia
  TGI: > 84.6 µM
MOLT-4 leukemia
  TGI: > 100 µM
XF 498 CNS
  TGI: > 100 µM
ACHN renal
  TGI: > 94.6 µM
UACC-62 melanoma
  TGI: 35.6 µM
TK-10 renal
  TGI: > 89 µM
NCI-H522 lung
  TGI: 66.6 µM
SF-539 CNS
  TGI: 45 µM
HL-60(TB) leukemia
  TGI: 65.8 µM
DMS 273 small cell lung
  TGI: > 100 µM
MALME-3M melanoma
  TGI: > 100 µM
HOP-92 NSCLC
  TGI: 66.9 µM
NCI-H226 lung
  TGI: 60.7 µM
UO-31 renal
  TGI: > 58.9 µM
BT-549 breast
  TGI: 57.4 µM
SK-OV-3 ovarian
  TGI: > 100 µM
SK-MEL-28 melanoma
  TGI: > 100 µM
DU-145 prostate
  TGI: 49.9 µM
SNB-78 CNS
  TGI: > 100 µM
COLO 205 colon
  TGI: > 100 µM
K-562 leukemia
  TGI: > 100 µM
RXF 393 renal
  TGI: 83.3 µM
MCF7 breast
  TGI: > 100 µM
DLD-1 colon
  TGI: > 72.8 µM
HOP-18 NSCLC
  TGI: > 100 µM
HS 578T breast
  TGI: > 100 µM
SF-295 CNS
  TGI: > 100 µM
LOX IMVI melanoma
  TGI: 30.9 µM
SW-620 colon
  TGI: > 100 µM
SF-268 CNS
  TGI: > 100 µM
CAKI-1 renal
  TGI: > 71.1 µM
